Test results reported in the supplement of paper PMC11451515.

Tested on: P12-Ichikawa
Assay: cell viability relative to DMSO control; higher = less cytotoxic
Conditions: 48 h
How it was run: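 Library compounds in DMSO were pin-dosed in an 11-point threefold series (47 μM to 0.79 nM) onto leukemia cells in 1536-well plates (5 μl). Plates held 500 cells/well of NOMO1 or SEM or 1000 cells/well of P12-Ichikawa, each adapted for at least four passages in each medium. Luminescence was read with CellTiter-Glo One after 48 h at 37°C. Viability means the per-plate percentage relative to DMSO wells, using cell-free wells as background.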

[1] = HPLM + 10% dialyzed FBS, 0.000781 µM
[2] = HPLM + 10% dialyzed FBS, 0.00234 µM
[3] = HPLM + 10% dialyzed FBS, 0.00702 µM
[4] = HPLM + 10% dialyzed FBS, 0.0211 µM
[5] = HPLM + 10% dialyzed FBS, 0.0632 µM
[6] = HPLM + 10% dialyzed FBS, 0.19 µM
[7] = HPLM + 10% dialyzed FBS, 0.569 µM
[8] = HPLM + 10% dialyzed FBS, 1.71 µM
[9] = HPLM + 10% dialyzed FBS, 5.12 µM
[10] = HPLM + 10% dialyzed FBS, 15.4 µM
[11] = HPLM + 10% dialyzed FBS, 46.1 µM
[12] = RPMI 5 mM glucose + 10% FBS, 0.000781 µM
[13] = RPMI 5 mM glucose + 10% FBS, 0.00234 µM
[14] = RPMI 5 mM glucose + 10% FBS, 0.00702 µM
[15] = RPMI 5 mM glucose + 10% FBS, 0.0211 µM
[16] = RPMI 5 mM glucose + 10% FBS, 0.0632 µM
[17] = RPMI 5 mM glucose + 10% FBS, 0.19 µM
[18] = RPMI 5 mM glucose + 10% FBS, 0.569 µM
[19] = RPMI 5 mM glucose + 10% FBS, 1.71 µM
[20] = RPMI 5 mM glucose + 10% FBS, 5.12 µM
[21] = RPMI 5 mM glucose + 10% FBS, 15.4 µM
[22] = RPMI 5 mM glucose + 10% FBS, 46.1 µM
[23] = RPMI 5 mM glucose + 10% dialyzed FBS, 0.000781 µM
[24] = RPMI 5 mM glucose + 10% dialyzed FBS, 0.00234 µM
[25] = RPMI 5 mM glucose + 10% dialyzed FBS, 0.00702 µM
[26] = RPMI 5 mM glucose + 10% dialyzed FBS, 0.0211 µM
[27] = RPMI 5 mM glucose + 10% dialyzed FBS, 0.0632 µM
[28] = RPMI 5 mM glucose + 10% dialyzed FBS, 0.19 µM
[29] = RPMI 5 mM glucose + 10% dialyzed FBS, 0.569 µM
[30] = RPMI 5 mM glucose + 10% dialyzed FBS, 1.71 µM
[31] = RPMI 5 mM glucose + 10% dialyzed FBS, 5.12 µM
[32] = RPMI 5 mM glucose + 10% dialyzed FBS, 15.4 µM
[33] = RPMI 5 mM glucose + 10% dialyzed FBS, 46.1 µM

SMILES | cell viability [1] [%] | cell viability [2] [%] | cell viability [3] [%] | cell viability [4] [%] | cell viability [5] [%] | cell viability [6] [%] | cell viability [7] [%] | cell viability [8] [%] | cell viability [9] [%] | cell viability [10] [%] | cell viability [11] [%] | cell viability [12] [%] | cell viability [13] [%] | cell viability [14] [%] | cell viability [15] [%] | cell viability [16] [%] | cell viability [17] [%] | cell viability [18] [%] | cell viability [19] [%] | cell viability [20] [%] | cell viability [21] [%] | cell viability [22] [%] | cell viability [23] [%] | cell viability [24] [%] | cell viability [25] [%] | cell viability [26] [%] | cell viability [27] [%] | cell viability [28] [%] | cell viability [29] [%] | cell viability [30] [%] | cell viability [31] [%] | cell viability [32] [%] | cell viability [33] [%]
COc1cc2c(Nc3ccc(Cl)c(Cl)c3F)ncnc2cc1OC[C@@H]1C[C@@H]2CN(C)C[C@@H]2C1 | 105 | 115 | 118 | 126 | 119 | 111 | 109 | 83.2 | 71.1 | 49.5 | 10.1 |  |  |  |  |  |  |  |  |  |  |  |  |  |  |  |  |  |  |  |  |  | 
CCN(CC)CCCCNc1nc2cc(Cl)c(Cl)cc2nc1-c1ccc(-c2cccs2)s1 | 94.2 | 114 | 75.6 | 114 | 109 | 134 | 118 | 121 | 115 | 123 | 59.9 | 99.9 | 119 | 64.8 | 123 | 120 | 125 | 134 | 125 | 123 | 114 | 5.94 | 107 | 116 | 78 | 118 | 120 | 129 | 123 | 127 | 121 | 108 | 6.07
Cn1c(Nc2ccc(C(F)(F)F)cc2)nc2cc(Oc3ccnc(-c4nc(C(F)(F)F)c[nH]4)c3)ccc21 | 120 | 112 | 119 | 93 | 133 | 125 | 126 | 123 | 111 | 81.8 | 27.1 |  |  |  |  |  |  |  |  |  |  |  |  |  |  |  |  |  |  |  |  |  | 
CN(C/C=C/C#CC(C)(C)C)Cc1cccc2ccccc12 | 96.2 | 103 | 101 | 104 | 105 | 103 | 106 | 90.6 | 103 | 105 | 107 | 90.6 | 93.1 | 100 | 93.8 | 100 | 105 | 101 | 101 | 98.9 | 102 | 94.5 | 92.3 | 94.4 | 89.7 | 92.3 | 99.5 | 90.8 | 90.9 | 96.5 | 91.8 | 91.3 | 93.8
OC[C@H](Cc1ccccc1)Nc1nc(Oc2ccc3c(c2)CCC3)nc2c1ncn2Cc1ccc(-c2ccccc2)cc1 | 93 | 94.1 | 98.7 | 102 | 96.4 | 99.1 | 105 | 94.3 | 95.4 | 82.7 | 79.2 | 90.8 | 93.3 | 89 | 90.5 | 94.7 | 89.5 | 91 | 97.3 | 90.1 | 86 | 75.1 | 79.6 | 88.4 | 90.9 | 99 | 99.8 | 89.3 | 90.8 | 87.7 | 88.9 | 72.4 | 68.4
C[C@@]12O[C@@H](C[C@]1(O)CO)n1c3ccccc3c3c4c(c5c6ccccc6n2c5c31)CNC4=O | 115 | 112 | 109 | 112 | 110 | 101 | 81.3 | 29.9 | 23.2 | 15.2 | 12.9 | 116 | 117 | 121 | 110 | 111 | 98.2 | 70.5 | 26.1 | 26.6 | 15.6 | 8.24 | 115 | 109 | 115 | 103 | 97.6 | 104 | 62.3 | 33.8 | 24.3 | 9.03 | 8.99
CCC1(c2ccc(N)cc2)CCC(=O)NC1=O (stereo not given) | 116 | 113 | 109 | 111 | 121 | 110 | 109 | 98.2 | 101 | 96.7 | 91.7 | 125 | 120 | 120 | 111 | 110 | 115 | 114 | 98.9 | 102 | 109 | 106 | 115 | 116 | 114 | 116 | 109 | 108 | 104 | 96.4 | 93.6 | 97.9 | 88
C[S+](=O)([O-])N(Cc1ccco1)CC(O)Cn1c2ccccc2c2ccccc21 (stereo not given) | 94.2 | 88.9 | 94.2 | 99.9 | 96.3 | 98.8 | 94.8 | 89.8 | 89.3 | 85.8 | 56.6 | 92 | 94 | 92 | 89.2 | 97.7 | 99.2 | 91.9 | 83.6 | 76.4 | 79.2 | 42.1 | 86 | 90.7 | 97 | 97.1 | 94.4 | 87.1 | 81.3 | 88.8 | 85.7 | 73.4 | 41.7
